{
  "source": "patent US12698342B2",
  "about": "“Therapy for drug-resistant cancer by administration of anti-HER2 antibody/drug conjugate” (DAIICHI SANKYO COMPANY, LIMITED, priority 2016, dated 2026)",
  "key": {"[1]": {"system": "Breast cancer or gastric adenocarcinoma/esophagogastric junction adenocarcinoma", "details": "human, in vivo", "description": "Open-label, Phase 1 dose escalation study.\nPart 1 study: Dose escalation study (conducted in Japan)\nBreast cancer or gastric adenocarcinoma/esophagogastric junction adenocarcinoma\nObjective response rate (ORR; complete response (CR)+partial response (PR)).\nDisease control rate (DCR; CR+PR+stable disease (SD))."}, "[2]": {"system": "HER2-positive human breast cancer ST1360B/TDR", "details": "mouse, in vivo", "experimental": "(§1) Mouse: 6- to 12-week-old female immunodeficient Crl:Nu(Ncr)-Foxn1^Nu mice (Charles River Laboratories Japan, Inc.) were subjected to the experiment.\n(§2) Assay and calculation expression: The major axis and minor axis of tumor were measured twice a week by using an electronic digital caliper, and the tumor volume (mm^3) was calculated. The calculation expression is as shown below. Tumor volume (mm^3)=0.52×Major axis (mm)×[Minor axis ([…])]^2\n(§3) Tumor excised from a patient with HER2-positive breast cancer that acquired resistance after treatment with T-DM1 was maintained at several passages by transplantation to female immunodeficient mice. […] ST1616B/TDR is tumor derived from a patient who received T-DM1 by continuous administration for 13 months, and ST1360B/TDR is a tumor derived from a patient who received T-DM1 by continuous administration for 3 months.\n(§4) A tumor section of the solid tumor was subcutaneously transplanted to the side of the body of each female immunodeficient mouse, and the mice were randomly grouped when the tumor volume reached about 200 mm^3."}, "[3]": {"system": "HER2-positive human breast cancer ST1616B/TDR", "details": "mouse, in vivo", "experimental": "as §1, §2, §3, §4"}, "[4]": {"molecular_target": "T1, topoisomerase I (Homo sapiens, UniProt P11387)", "T1 sequence (P11387 1-765)": "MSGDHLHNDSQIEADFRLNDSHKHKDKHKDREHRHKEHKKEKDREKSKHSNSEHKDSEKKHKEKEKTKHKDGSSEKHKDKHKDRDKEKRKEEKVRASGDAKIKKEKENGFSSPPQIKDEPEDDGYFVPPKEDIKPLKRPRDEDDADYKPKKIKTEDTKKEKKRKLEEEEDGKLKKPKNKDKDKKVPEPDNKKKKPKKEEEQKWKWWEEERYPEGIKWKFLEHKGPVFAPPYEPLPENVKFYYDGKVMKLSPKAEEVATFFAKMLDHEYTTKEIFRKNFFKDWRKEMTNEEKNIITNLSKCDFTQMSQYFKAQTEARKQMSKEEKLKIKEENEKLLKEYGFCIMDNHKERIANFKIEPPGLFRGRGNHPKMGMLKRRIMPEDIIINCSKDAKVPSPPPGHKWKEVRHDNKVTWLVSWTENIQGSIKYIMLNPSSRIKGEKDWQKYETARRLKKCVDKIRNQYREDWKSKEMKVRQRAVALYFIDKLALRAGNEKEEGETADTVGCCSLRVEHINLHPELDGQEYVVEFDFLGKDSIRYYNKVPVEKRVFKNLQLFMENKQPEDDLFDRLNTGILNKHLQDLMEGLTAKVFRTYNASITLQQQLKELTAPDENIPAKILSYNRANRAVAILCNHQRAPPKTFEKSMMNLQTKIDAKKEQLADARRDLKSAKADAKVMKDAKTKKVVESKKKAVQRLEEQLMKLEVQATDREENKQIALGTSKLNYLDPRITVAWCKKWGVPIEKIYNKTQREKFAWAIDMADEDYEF", "details": "cited from earlier work"}},
  "data": [
    {"molecule": "T-DM1", "values": [
      {"measurement": "DCR", "setting": "[1]", "value": 64, "unit": "%"},
      {"measurement": "ORR", "setting": "[1]", "value": 18, "unit": "%"},
      {"measurement": "growth of the tumor (tumor volume)", "setting": "[2]", "value": "did not inhibit the growth"},
      {"measurement": "growth of the tumor (tumor volume)", "setting": "[3]", "value": "did not inhibit the growth"}
    ]},
    {"molecule": "CC[C@@]1(O)C(=O)OCc2c1cc1n(c2=O)Cc2c-1nc1cc(F)c(C)c3c1c2[C@@H](N)CC3", "note": "[exatecan, (1S,9S)-1-amino-9-ethyl-5-fluoro-1,2,3,9,12,15-hexahydro-9-hydroxy-4-methyl-10H,13H-benzo[de]pyrano[3′,4′:6,7]indolizino[1,2-b]quinolin-10,13-dione]", "values": [
      {"measurement": "inhibitory activity on topoisomerase I", "setting": "[4]; compared with SN-38 and topotecan", "value": "higher than SN-38"}
    ]},
    {"molecule": "CC[C@@]1(O)C(=O)OCc2c1cc1n(c2=O)Cc2c-1nc1cc(F)c(C)c3c1c2[C@@H](NC(=O)CO)CC3", "note": "[Compound 1]", "values": [
      {"measurement": "topoisomerase I inhibitory effect", "setting": "[4]; Ogitani Y. et al., Clinical Cancer Research, 2016", "value": "confirmed to have a topoisomerase I inhibitory effect"}
    ]}
  ]
}
